{
  "source": "ChEMBL document CHEMBL1131984",
  "about": "“Synthesis and antitumour activity of novel diterpenequinone salvicine and the analogs” (Bioorg Med Chem Lett, 1999)",
  "key": {"HL-60": {"tested_on": "HL-60", "experiment": "In vitro cytotoxic activity against HL-60 human leukemia cell line by MTT assay (microculture terazolium colorimetric)", "type": "functional, cell-based"}, "P388": {"tested_on": "P388", "experiment": "In vitro cytotoxic activity against P388 mouse leukemia cell line by MTT assay (microculture terazolium colorimetric)", "type": "functional, cell-based"}, "SPC-A4": {"tested_on": "SPC-A4", "experiment": "In vitro cytotoxic activity against SPC-A4 lung cancer solid tumor cell line by MTT assay (microculture terazolium colorimetric)", "type": "functional, cell-based", "details": "Homo sapiens"}, "SGC-7901": {"tested_on": "SGC-7901", "experiment": "In vitro cytotoxic activity against SGC-7901 stomach cancer solid tumor cell line by MTT assay (microculture terazolium colorimetric)", "type": "functional, cell-based", "details": "Homo sapiens"}, "Mus musculus [1]": {"tested_on": "Mus musculus", "experiment": "In vivo inhibitory activity against murine lewis lung cancer at a dose of 5.0 mg/kg i.p. (day10)", "type": "functional", "details": "route intraperitoneal"}, "Mus musculus [2]": {"tested_on": "Mus musculus", "experiment": "(§1) Ratio of the tumor weight of mice at the initial stage and the final stage of the experiment was reported at a dose of 3.0 mg/kg (day 7)", "type": "functional"}, "Mus musculus [3]": {"tested_on": "Mus musculus", "experiment": "as §1", "type": "functional", "remark": "listed apart in the source"}, "Mus musculus [4]": {"tested_on": "Mus musculus", "experiment": "In vivo inhibitory activity against murine S-180 sarcoma at a dose of 3.0 mg/kg (day 7)", "type": "functional"}, "Mus musculus [5]": {"tested_on": "Mus musculus", "experiment": "Ratio of the tumor weight of mice at the initial stage and the final stage of the experiment was reported at a dose of 5.0 mg/kg i.p. (day10)", "type": "functional", "details": "route intraperitoneal"}, "Mus musculus [6]": {"tested_on": "Mus musculus", "experiment": "In vivo inhibitory activity against human lung adenocarcinoma xenograft A-549 in mice at a dose of 2.0 mg/kg (Q2dx9) administered i.p.", "type": "functional", "details": "A549, ip, route intraperitoneal"}, "Mus musculus [7]": {"tested_on": "Mus musculus", "experiment": "Ratio of the tumor weight of mice at the initial stage and the final stage of the experiment was reported at a dose of 0.2 ml/mouse (Q2dx10) administered i.p.; 10/10", "type": "functional"}, "Mus musculus [8]": {"tested_on": "Mus musculus", "experiment": "Ratio of the tumor weight of mice at the initial stage and the final stage of the experiment was reported at a dose of 0.2 ml/mouse (Q2dx10) administered i.p.", "type": "functional"}, "Mus musculus [9]": {"tested_on": "Mus musculus", "experiment": "In vivo inhibitory activity against human lung adenocarcinoma xenograft LAX-83 in mice at a dose of 2.0 mg/kg (Q2dx10) administered i.p.", "type": "functional", "details": "route intraperitoneal"}, "Mus musculus [10]": {"tested_on": "Mus musculus", "experiment": "In vivo inhibitory activity against human lung adenocarcinoma xenograft A-549 in mice at a dose of 2.0 mg/kg (Q2dx10) administered i.p.", "type": "functional", "details": "route intraperitoneal"}, "Mus musculus [11]": {"tested_on": "Mus musculus", "experiment": "Ratio of the tumor weight of mice at the initial stage and the final stage of the experiment was reported at a dose of 0.2 ml/mouse (Q2dx9) administered i.p.", "type": "functional"}},
  "note": "“And” between values parts separate entries of the source, which are not always exact repeats. Equal entries are not always repeated.",
  "data": [
    {"molecule": "C=C(C)[C@H](CCc1c(C)ccc2c1C(=O)C(=O)C(C(C)C)=C2)OO", "values": [
      {"measurement": "IC50", "setting": "HL-60", "result": 3.7, "unit": "µM"},
      {"measurement": "IC50", "setting": "P388", "result": 3700, "unit": "nM"},
      {"measurement": "IC50", "setting": "SPC-A4", "result": 2900, "unit": "nM"},
      {"measurement": "IC50", "setting": "SGC-7901", "result": 2.22, "unit": "µM"}
    ]},
    {"molecule": "Cc1ccc2cc(C(C)C)c(=O)oc(=O)c2c1CCC(=O)C(C)C", "values": [
      {"measurement": "IC50", "setting": "HL-60", "result": 1.43, "unit": "µM"},
      {"measurement": "IC50", "setting": "P388", "result": 1470, "unit": "nM"},
      {"measurement": "IC50", "setting": "SPC-A4", "result": 2760, "unit": "nM"},
      {"measurement": "IC50", "setting": "SGC-7901", "result": 89.6, "unit": "µM"}
    ]},
    {"molecule": "Cc1ccc2c(c1CCC=O)C(=O)C(=O)C(C(C)C)=C2", "values": [
      {"measurement": "IC50", "setting": "HL-60", "result": 2.39, "unit": "µM"},
      {"measurement": "IC50", "setting": "P388", "result": 1780, "unit": "nM"},
      {"measurement": "IC50", "setting": "SPC-A4", "result": 2680, "unit": "nM"},
      {"measurement": "IC50", "setting": "SGC-7901", "result": 52.4, "unit": "µM"}
    ]},
    {"molecule": "CC(=O)OC(CCc1c(C)ccc2c1C(=O)C(=O)C(C(C)C)=C2)C(C)(C)O", "note": "(stereo not drawn)", "values": [
      {"measurement": "IC50", "setting": "HL-60", "result": 5.04, "unit": "µM"},
      {"measurement": "IC50", "setting": "P388", "result": 3390, "unit": "nM"},
      {"measurement": "IC50", "setting": "SPC-A4", "result": 2610, "unit": "nM"}
    ]},
    {"molecule": "COc1cc([C@@H]2c3cc4c(cc3[C@@H](O[C@@H]3O[C@@H]5CO[C@@H](C)O[C@H]5[C@H](O)[C@H]3O)[C@H]3COC(=O)[C@H]23)OCO4)cc(OC)c1O", "note": "[ETOPOSIDE]", "values": [
      {"measurement": "inhibition in vivo at 5 mg/kg", "setting": "Mus musculus [1]; Mus musculus, Lung, ip, 240 h", "result": 50.3, "unit": "%"},
      {"measurement": "Inhibition", "setting": "Mus musculus [1]; 5 mg/kg", "result": 48.5, "unit": "%"},
      {"measurement": "Tumor weight", "setting": "Mus musculus [2]", "result": 0.99, "unit": "g"},
      {"measurement": "Tumor weight", "setting": "Mus musculus [3]", "result": "1.09 g and 1.06 g"},
      {"measurement": "Inhibition", "setting": "Mus musculus [4]", "result": "40% and 39.4% and 61.3%"},
      {"measurement": "Tumor weight", "setting": "Mus musculus [5]", "result": "0.73 g and 1.03 g"}
    ]},
    {"molecule": "CO[C@@]12[C@H](COC(N)=O)C3=C(C(=O)C(C)=C(N)C3=O)N1C[C@@H]1N[C@@H]12", "note": "[MITOMYCIN]", "values": [
      {"measurement": "inhibition in vivo at 2 mg/kg", "setting": "Mus musculus [6]", "result": 79.2, "unit": "%"},
      {"measurement": "Tumor weight", "setting": "Mus musculus [7]", "result": 2.64, "unit": "g"},
      {"measurement": "Tumor weight", "setting": "Mus musculus [8]", "result": "1.62 g and 1.71 g and 1.91 g and 1.15 g"},
      {"measurement": "Inhibition", "setting": "Mus musculus [9]", "result": "63.49% and 70.1% and 87.54%"},
      {"measurement": "inhibition in vivo at 2 mg/kg", "setting": "Mus musculus [10]; Mus musculus, A549, ip", "result": 67.9, "unit": "%"},
      {"measurement": "Inhibition", "setting": "Mus musculus [10]; 2 mg/kg", "result": 52.69, "unit": "%"},
      {"measurement": "Tumor weight", "setting": "Mus musculus [11]", "result": 3.43, "unit": "g"}
    ]}
  ]
}
